Results from US4877881A, “Process of preparing pyrazoles, isoxazoles and analogs thereof having activity as 5-lipoxygenase inhibitors” (Warner-Lambert Company, priority 1988, dated 1989).

Experiments:
5-lipoxygenase = target: T1, 5-lipoxygenase (Homo sapiens, UniProt P09917); assay: 5-Lipoxygenase Assay Using Isolated Human Leukocytes (5LOA2), 5-HETE formation; type: cell-based; settings: inhibition of 5-HETE formation, arachidonic acid 20 μM, A23187 10 μM, read-out: 5-LO(IC50 in μM)
T1 construct: The formation of 5-HETE in human leukocytes is considered a measure of 5-lipoxygenase activity; endogenous in cells; host or cells: leukocytes isolated from fresh human blood
T1 sequence (P09917 1-674): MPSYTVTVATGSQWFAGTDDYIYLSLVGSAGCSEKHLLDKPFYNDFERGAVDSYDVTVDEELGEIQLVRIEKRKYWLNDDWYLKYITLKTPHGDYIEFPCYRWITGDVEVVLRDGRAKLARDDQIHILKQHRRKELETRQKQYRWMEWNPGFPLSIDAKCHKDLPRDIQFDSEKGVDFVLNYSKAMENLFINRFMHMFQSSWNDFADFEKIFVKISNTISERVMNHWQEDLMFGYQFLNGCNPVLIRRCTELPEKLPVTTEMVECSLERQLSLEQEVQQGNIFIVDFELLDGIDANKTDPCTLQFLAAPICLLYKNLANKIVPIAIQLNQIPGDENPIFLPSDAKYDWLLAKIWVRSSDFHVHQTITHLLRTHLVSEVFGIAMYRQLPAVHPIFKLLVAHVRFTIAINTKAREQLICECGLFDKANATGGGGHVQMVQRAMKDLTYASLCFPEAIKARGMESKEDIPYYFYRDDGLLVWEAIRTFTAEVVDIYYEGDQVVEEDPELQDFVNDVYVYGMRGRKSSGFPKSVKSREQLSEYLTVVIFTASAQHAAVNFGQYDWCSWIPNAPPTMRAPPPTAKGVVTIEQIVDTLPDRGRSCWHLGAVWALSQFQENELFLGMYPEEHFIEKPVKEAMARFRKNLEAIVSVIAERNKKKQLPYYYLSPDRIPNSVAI
Procedure: 5-Lipoxygenase Assay Using Isolated Human Leukocytes (5LOA2)
The formation of 5-HETE in human leukocytes is considered a measure of 5-lipoxygenase activity. The protocol is described in the following.
Fresh heparinized or EDTA treated human blood is mixed with 6% dextran-3% dextrose in isotonic saline in the ratio 0.25 ml dextran solution per 1.0 ml blood. After mixing the blood is allowed to sit at room temperature for about 90 minutes while the RBC's settle. During this period, the plasma is removed with a plastic pipette to nalgens tubes.
The pellet, consisting of leukocytes and erythrocytes, is treated with 10 ml 0.87% ammonium chloride at room temperature for four minutes, lysing the red cells. At the end of four minutes the cells are diluted with a 2x volume of phosphate buffered saline, pH 7.4, and centrifuged for ten minutes. The cells are washed three times with the phosphate buffered saline. Any of the pelleted cell matter which is not easily resuspended is discarded during the washings--the material contains platelets (12-lipoxygenase activity).
After washing, the cells are resuspended in phosphate buffered saline containing 1.0 mM 'calcium and 0.5 mM magnesium. After counting, the cells are diluted to 1.5-2.0×10^7 leukocytes per milliliter.
To each polypropylene reaction tube is added 0.48 ml leukocytes in Ca-Mg phosphate buffered saline, pH 7.4; 1-5 μl test compound dissolved in DMSO and buffer; or DMSO for control tubes.
The tubes preincubate at 37° C. for five minutes.
The reaction is started by adding 20 μl of the following, 0.5 μl, 20 mM arachidonic acid--final concentration=20 μM; 1 μl, 5 mM calcium ionophore A23187--final concentration=10 μM; and 18.5 μl buffer.
The reaction proceeds for five minutes, then is stopped by adding 0.5 ml, 0.5 mM ice-cold Tris buffer, pH 8.0. The tubes are chilled on ice for ten minutes and then extracted three times with a total of 3.5 ml ethyl acetate (3.0 ml removed).
The tubes can be stored at this point. For extended storage, the tubes should be filled with nitrogen.
The ethyl acetate is evaporated with a Sorvall Speed-Vac. The residue is dissolved in ethanol. The tubes can also be stored at this point at -20° C. under nitrogen.
A portion of the ethanol solution is injected into the HPLC system for 5-HETE quantitation.
Injections are made automatically with a Waters WISP 710B. The pump is a Spectra Physics SP8700. […] An RP C-18 column is used. The solvent system is isocratic; the solvent is 70% methanol and 30% 0.01M sodium acetate, pH 5.7, pumped at 1.0 ml/min. […] Using a 15 cm Alltech Nucleosil C-18 5 μM column provides for a sample turnaround time of about 16 minutes.

cyclooxygenase = target: T2, cyclooxygenase (Rattus norvegicus, UniProt Q63921); assay: ARBC Whole Cell Cyclooxygenase Assay in RBL-1 cells (PGF2α RIA); type: cell-based; settings: RBL-1 intact cell cyclooxygenase; A23187 5 μM
T2 construct: RBL-1 intact cell cyclooxygenase IC50 values; endogenous in cells; host or cells: RBL-1 rat basophilic leukemia cells (American Type Culture Collection)
T2 sequence (Q63921 27-602): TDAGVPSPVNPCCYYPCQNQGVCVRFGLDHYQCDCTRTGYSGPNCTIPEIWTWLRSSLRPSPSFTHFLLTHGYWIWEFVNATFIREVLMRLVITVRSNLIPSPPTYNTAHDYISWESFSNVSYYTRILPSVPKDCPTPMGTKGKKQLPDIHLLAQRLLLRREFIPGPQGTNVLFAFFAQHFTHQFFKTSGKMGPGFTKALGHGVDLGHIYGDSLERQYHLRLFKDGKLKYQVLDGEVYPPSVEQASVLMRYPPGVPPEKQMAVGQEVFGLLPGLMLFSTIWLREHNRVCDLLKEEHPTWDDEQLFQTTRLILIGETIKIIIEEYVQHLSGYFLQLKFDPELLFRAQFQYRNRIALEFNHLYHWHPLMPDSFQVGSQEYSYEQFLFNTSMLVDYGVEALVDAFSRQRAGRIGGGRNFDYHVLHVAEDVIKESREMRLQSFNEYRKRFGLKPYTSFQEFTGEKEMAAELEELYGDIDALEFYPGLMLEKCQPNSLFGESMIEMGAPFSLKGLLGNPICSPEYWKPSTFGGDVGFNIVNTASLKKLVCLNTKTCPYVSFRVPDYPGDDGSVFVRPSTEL
Procedure: ARBL/ARBC Whole Cell 5-Lipoxygenase and Cyclooxygenase Assays
The rat basophilic leukemia cell line (RBL-1) was obtained from the American Type Culture Collection (Rockville, Md.).
Radioimmuno assay (RIA) kits of LTB4 and PGF2α were obtained from Amersham (Arlington Heights, Ill.) and Seragen (Boston, Mass.) respectively.
All tissue culture media were obtained from GIBO (Gran Island, N.Y.).
RBL-1 cells were grown in culture (suspension) in Eagle's minimum essential medium supplemented with 12% fetal bovine serum and 1:100 antibiotic-antimycotic mixture at 37° C. in an incubator supplied with air-5% carbon dioxide. Cells were harvested by centrifugation. They were washed with cold phosphate buffered saline pH 7.4 (PBS; NaCl, 7.1 g; Na2 HOP4, 1.15 g; KH2 PO4, 0.2 g; and KCl, 0.2 g/L). […] Calcium ionophore A23187 (5 μM) was added and cells were incubated for seven minutes at 37° C. The reaction was stopped by chilling the tubes in ice for ten minutes. Cells were separated by centrifugation and the supernatant was stored at -20°. Aliquots (100 μl) were analyzed for LTB4 and PGF2α using radioimmuno assay kits as provided by the supplier.

| IC50 (5-lipoxygenase) [µM] | IC50 (cyclooxygenase) [µM] | SMILES |
| --- | --- | --- |
| 5.5 | 6.8 | Cc1cc(C=Cc2ccc(O)c(Cl)c2)n[nH]1 [Example 7, 3-[β-(4'-Hydroxy-3'-chlorophenyl)ethenyl]-5-methylpyrazole] |
| 1 | 2.5 | COc1cc(C=Cc2cc(C=Cc3ccc(O)c(OC)c3)[nH]n2)ccc1O [Example 1, 3,5-Bis[β-(4'-hydroxy-3'-methoxyphenyl)ethenyl]pyrazole] |
| 7.1 | 13 | COc1cc(C=Cc2cc(C)n[nH]2)ccc1O [Example 5, 3-[β-(4'-Hydroxy-3'-methoxyphenyl)ethenyl]-5-methylpyrazole] |
